Columns and labels:
[1] = biological target: Tyrosine-protein kinase JAK2 (Homo sapiens, UniProt O60674); test: JAK2 Activity Inhibition Assay
Experimental: The enzymatic activity of JAK2 was assessed by detecting the substrate phosphorylation level in a kinase reaction with a homogeneous time-resolved fluorescence (HTRF) kinase detection kit (Cisbio, 62TK0PEC). A reaction buffer contained an enzyme buffer (1×), 5 mM MgCl2, 1 mM DTT and 0.01% Brij35 from the kit; a human recombinant JAK2 protein (Carna Biosciences, 08-045) was diluted to a kinase reaction solution of 0.15 ng/μL with the reaction buffer; a substrate reaction solution contained 2.5 μM ATP and a biotin-labeled tyrosine kinase substrate diluted to 0.25 μM with the reaction buffer; a detection buffer contained 0.1 ng/μL Eu3+ labeled cage antibody (Cisbio, 61T66KLB) and 12.5 nM streptavidin-labeled XL665 (Cisbio, 610SAXLB) in the reaction buffer; the compound was dissolved to 10 μM in DMSO, followed by a serial 4-fold dilution with DMSO to a minimum concentration of 0.061 nM. Each concentration was further diluted 40-fold with the reaction buffer. To a 384-well assay plate (Corning, 3674) were added 4 μL of the compound solutions having a series of concentrations and 2 μL of JAK2 kinase reaction solutions. […] An Envision plate reader (Perkin Elmer) was then used to measure the progress of the reaction at wavelengths of 620 nm and 665 nm.

[2] = biological target: Non-receptor tyrosine-protein kinase TYK2 (Homo sapiens, UniProt P29597); test: TYK2 Activity Inhibition Assay
Sequence of Non-receptor tyrosine-protein kinase TYK2 (P29597 whole entry): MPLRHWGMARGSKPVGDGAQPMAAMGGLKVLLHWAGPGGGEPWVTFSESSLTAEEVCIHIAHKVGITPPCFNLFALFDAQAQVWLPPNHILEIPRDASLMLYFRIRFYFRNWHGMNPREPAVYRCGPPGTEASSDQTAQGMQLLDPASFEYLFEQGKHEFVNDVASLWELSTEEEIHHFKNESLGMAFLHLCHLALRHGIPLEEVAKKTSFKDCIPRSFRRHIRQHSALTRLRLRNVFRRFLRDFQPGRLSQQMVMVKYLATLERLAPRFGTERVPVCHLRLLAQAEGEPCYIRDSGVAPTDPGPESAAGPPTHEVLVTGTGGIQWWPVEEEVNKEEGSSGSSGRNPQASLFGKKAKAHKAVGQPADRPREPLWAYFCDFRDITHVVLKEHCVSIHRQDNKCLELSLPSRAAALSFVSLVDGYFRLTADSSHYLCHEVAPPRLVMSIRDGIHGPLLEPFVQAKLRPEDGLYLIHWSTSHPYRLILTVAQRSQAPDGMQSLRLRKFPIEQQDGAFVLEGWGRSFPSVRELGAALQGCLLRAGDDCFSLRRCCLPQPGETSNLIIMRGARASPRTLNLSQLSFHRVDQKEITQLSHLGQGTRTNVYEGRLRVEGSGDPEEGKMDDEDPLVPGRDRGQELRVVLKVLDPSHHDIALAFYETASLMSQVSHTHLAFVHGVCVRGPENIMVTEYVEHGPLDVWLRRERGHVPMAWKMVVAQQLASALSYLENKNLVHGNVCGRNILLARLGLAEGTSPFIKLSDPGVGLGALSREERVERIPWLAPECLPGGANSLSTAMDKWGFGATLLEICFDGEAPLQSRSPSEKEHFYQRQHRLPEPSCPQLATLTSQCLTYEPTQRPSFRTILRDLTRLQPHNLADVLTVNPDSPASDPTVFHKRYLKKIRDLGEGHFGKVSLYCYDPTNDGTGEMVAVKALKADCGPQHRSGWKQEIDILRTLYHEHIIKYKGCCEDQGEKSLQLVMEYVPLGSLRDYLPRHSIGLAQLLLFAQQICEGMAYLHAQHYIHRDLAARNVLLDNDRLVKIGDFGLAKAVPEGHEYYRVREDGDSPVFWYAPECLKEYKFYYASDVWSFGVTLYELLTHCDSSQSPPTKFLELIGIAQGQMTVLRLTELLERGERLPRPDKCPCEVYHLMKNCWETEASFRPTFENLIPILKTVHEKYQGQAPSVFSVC
Experimental: The enzymatic activity of TYK2 was assessed by detecting the substrate phosphorylation level in a kinase reaction with a homogeneous time-resolved fluorescence (HTRF) kinase detection kit (Cisbio, 62TK0PEC). A reaction buffer contained an enzyme buffer (1×), 5 mM MgCl2, 1 mM DTT and 0.01% Brij35 from the kit; a human recombinant TYK2 protein (Carna Biosciences, 08-147) was diluted to a kinase reaction solution of 0.25 ng/μL with the reaction buffer; a substrate reaction solution contained 11.25 μM ATP and a biotin-labeled tyrosine kinase substrate diluted to 0.5 μM with the reaction buffer; a detection buffer contained 0.1 ng/μL Eu3+ labeled cage antibody (Cisbio, 61T66KLB) and 25 nM streptavidin-labeled XL665 (Cisbio, 610SAXLB) in the reaction buffer; the compound was dissolved to 10 μM in DMSO, followed by a serial 4-fold dilution with DMSO to a minimum concentration of 0.061 nM. Each concentration was further diluted 40-fold with the reaction buffer. To a 384-well assay plate (Corning, 3674) were added 4 μL of the compound solutions having a series of concentrations and 2 μL of kinase reaction solutions. After being mixed evenly, the mixtures were incubated at room temperature for 15 minutes, and then 4 μL of the substrate reaction solutions were added.

Sequence of Tyrosine-protein kinase JAK2 (O60674 whole entry): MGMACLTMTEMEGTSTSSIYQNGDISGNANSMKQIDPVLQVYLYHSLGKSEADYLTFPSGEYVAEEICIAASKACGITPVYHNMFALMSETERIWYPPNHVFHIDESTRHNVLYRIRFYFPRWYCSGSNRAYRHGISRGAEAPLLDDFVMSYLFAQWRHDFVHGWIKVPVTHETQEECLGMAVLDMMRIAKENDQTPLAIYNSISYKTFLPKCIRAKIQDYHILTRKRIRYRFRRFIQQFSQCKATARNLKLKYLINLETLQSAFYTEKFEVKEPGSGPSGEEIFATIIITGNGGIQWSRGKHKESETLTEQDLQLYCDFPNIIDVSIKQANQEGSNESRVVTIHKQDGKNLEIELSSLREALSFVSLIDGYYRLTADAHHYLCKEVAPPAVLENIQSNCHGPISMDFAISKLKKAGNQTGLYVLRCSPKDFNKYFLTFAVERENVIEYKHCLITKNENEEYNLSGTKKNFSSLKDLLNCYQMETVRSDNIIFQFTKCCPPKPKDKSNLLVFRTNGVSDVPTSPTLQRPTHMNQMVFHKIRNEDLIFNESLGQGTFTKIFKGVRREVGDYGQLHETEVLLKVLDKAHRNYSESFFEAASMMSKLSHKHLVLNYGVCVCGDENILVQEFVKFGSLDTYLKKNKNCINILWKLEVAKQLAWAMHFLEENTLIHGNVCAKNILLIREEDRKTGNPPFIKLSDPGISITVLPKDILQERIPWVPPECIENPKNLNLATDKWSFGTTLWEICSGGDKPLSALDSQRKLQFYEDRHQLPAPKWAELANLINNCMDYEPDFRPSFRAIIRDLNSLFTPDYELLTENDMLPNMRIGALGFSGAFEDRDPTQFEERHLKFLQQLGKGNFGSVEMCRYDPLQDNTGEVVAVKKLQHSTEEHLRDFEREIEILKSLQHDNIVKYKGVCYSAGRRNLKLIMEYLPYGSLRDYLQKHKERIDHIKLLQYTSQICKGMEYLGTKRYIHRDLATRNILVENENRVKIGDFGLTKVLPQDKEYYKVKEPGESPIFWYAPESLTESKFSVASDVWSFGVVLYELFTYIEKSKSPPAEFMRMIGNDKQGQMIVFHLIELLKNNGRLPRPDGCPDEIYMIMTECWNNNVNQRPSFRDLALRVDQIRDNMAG

O=C1NCCn2c(-c3c(F)cccc3F)nc(Nc3ccc(C(=O)N4CCOCC4)cc3)c21 [US20240246984, Compound 2.]
IC50 [1]: 1.9 nM
IC50 [2]: 0.2 nM

Source: BindingDB's records for patent US20240246984 (Beijing Innocare Pharma Tech, 2024)
